What was measured:
TDO = molecular target: T1, TDO (Homo sapiens, UniProt P48775); assay: TDO enzymatic assay; settings: geometric mean; read-out: TDO GMean: IC50 (μM) (Biochemical Assay)
T1 construct: His tag (N); made in house; host or cells: E. coli
Summary of the method: (§1)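 N-His human enzymes from E. coli in 50 mM sodium phosphate pH 6.5 with ascorbate, catalase, Tween 20. IDO: 6 nM enzyme, 10 μM L-Trp, 5 μM methylene blue, 20 min RT; TDO: 1 nM enzyme, 350 μM L-Trp, 0.4 μM methylene blue, 70 min RT. TCA stop, kynurenine measured; IC50 by nonlinear regression.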

IDO1 = molecular target: T2, IDO1 (Homo sapiens, UniProt P14902); assay: IDO enzymatic assay; format: biochemical; settings: geometric mean; read-out: IDO1 GMean: IC50 (μM) (Biochemical Assay)
T2 construct: His tag (N); made in house; host or cells: E. coli
T2 sequence (P14902 whole entry): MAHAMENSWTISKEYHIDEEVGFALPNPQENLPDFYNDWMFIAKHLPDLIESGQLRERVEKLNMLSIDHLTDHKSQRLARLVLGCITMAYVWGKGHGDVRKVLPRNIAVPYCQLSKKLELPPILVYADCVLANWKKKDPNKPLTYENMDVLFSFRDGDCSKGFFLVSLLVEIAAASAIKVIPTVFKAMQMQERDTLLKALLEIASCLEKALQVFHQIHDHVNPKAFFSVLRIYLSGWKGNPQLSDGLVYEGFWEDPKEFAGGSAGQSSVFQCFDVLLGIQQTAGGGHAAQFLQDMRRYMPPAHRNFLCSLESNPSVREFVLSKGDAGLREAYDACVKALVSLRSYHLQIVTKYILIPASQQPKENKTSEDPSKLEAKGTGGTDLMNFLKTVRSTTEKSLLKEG
Summary of the method: as §1

[1] = molecular target: T3, TDO-expressing HEK293 cell clones (Homo sapiens, UniProt P48775); assay: Cell based kynurenine assay, TDO-expressing HEK293 cell clones; settings: HEK293 cells, 24 hours of incubation, geometric mean; read-out: HEK293 TDO Kynurenine GMean IC50 (μM) (Cellular Assay)
T3 construct: expressed in transfected cells; host or cells: HEK293
T3 sequence (P48775 whole entry): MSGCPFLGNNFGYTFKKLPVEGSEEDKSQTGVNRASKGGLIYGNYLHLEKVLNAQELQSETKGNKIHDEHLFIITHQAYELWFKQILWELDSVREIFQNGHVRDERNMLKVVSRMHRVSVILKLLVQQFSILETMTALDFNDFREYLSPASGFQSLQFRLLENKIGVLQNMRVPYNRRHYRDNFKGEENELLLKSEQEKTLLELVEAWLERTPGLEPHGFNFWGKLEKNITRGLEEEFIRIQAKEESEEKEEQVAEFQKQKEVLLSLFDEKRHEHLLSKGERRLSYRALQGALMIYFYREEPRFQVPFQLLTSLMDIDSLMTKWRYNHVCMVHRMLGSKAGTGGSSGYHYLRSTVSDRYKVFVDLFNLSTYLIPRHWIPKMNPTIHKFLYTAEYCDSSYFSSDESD
Summary of the method: (§2)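 HEK293 clones stably transfected with CMV-driven human IDO1 or human TDO were seeded at 2.5×10^4 cells/well and treated with serial compound dilutions for 24 hours. Supernatant kynurenine was measured. % inhibition versus DMSO-cell and media-only controls was fitted by nonlinear regression to give IC50.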

[2] = molecular target: T4, IDO1-expressing HEK293 cell clones (Homo sapiens, UniProt P14902); assay: Cell based kynurenine assay, IDO1-expressing HEK293 cell clones; settings: HEK293 cells, 24 hours of incubation, geometric mean; read-out: HEK293 IDO1 Kynurenine GMean IC50 (μM) (Cellular Assay)
T4 construct: expressed in transfected cells; host or cells: HEK293
T4 sequence (P14902 whole entry): as the sequence (P14902 whole entry) above
Summary of the method: as §2

T1 sequence (P48775 whole entry): as the sequence (P48775 whole entry) above

Row | SMILES | IC50 (TDO) [µM] | IC50 (IDO1) [µM] | IC50 [1] [µM] | IC50 [2] [µM]
1 | CCCNC(=O)N1CCC(C(C)(C)C(O)c2cc(Cl)cc3[nH]ncc23)CC1 (stereo not shown) [Compound P-0077, 4-(1-(6-chloro-1H-indazol-4-yl)-1-hydroxy-2-methylpropan-2-yl)-N-propylpiperidine-1-carboxamide] | 0.0001 to 10 | 0.0001 to 10 | 0.0001 to 10 | 0.0001 to 10
2 | CC(C)(C1CCN(C(=O)NC2CCC2)CC1)C(O)c1cc(Cl)cc2[nH]ncc12 (stereo not shown) [Compound P-0078, 4-(1-(6-chloro-1H-indazol-4-yl)-1-hydroxy-2-methylpropan-2-yl)-N-cyclobutylpiperidine-1-carboxamide] | 0.0001 to 10 | 0.0001 to 10 | 0.0001 to 10 | 0.0001 to 10
3 | CC(C)(C1CCN(C(=O)NC2CCOCC2)CC1)C(O)c1cc(Cl)cc2[nH]ncc12 (stereo not shown) [Compound P-0079, 4-(1-(6-chloro-1H-indazol-4-yl)-1-hydroxy-2-methylpropan-2-yl)-N-(tetrahydro-2H-pyran-4-yl)piperidine-1-carboxamide] | 0.0001 to 10 | 0.0001 to 10 | 0.0001 to 10 | 0.0001 to 10
4 | CC(C)(C1CCN(C(=O)NCC2CC2)CC1)C(O)c1cc(Cl)cc2[nH]ncc12 (stereo not shown) [Compound P-0080, 4-(1-(6-chloro-1H-indazol-4-yl)-1-hydroxy-2-methylpropan-2-yl)-N-(cyclopropylmethyl)piperidine-1-carboxamide] | 0.0001 to 10 | 0.0001 to 10 | 0.0001 to 10 | 0.0001 to 10
5 | CC(C)(C1CCN(C(=O)Nc2ccc(F)cc2F)CC1)C(O)c1cc(Cl)cc2[nH]ncc12 (stereo not shown) [Compound P-0082, 4-(1-(6-chloro-1H-indazol-4-yl)-1-hydroxy-2-methylpropan-2-yl)-N-(2,4-difluorophenyl)piperidine-1-carboxamide] | 0.0001 to 10 | 0.0001 to 10 | 0.0001 to 10 | > 10
6 | COCCNC(=O)N1CCC(C(C)(C)C(O)c2cc(Cl)cc3[nH]ncc23)CC1 (stereo not shown) [Compound P-0083, 4-(1-(6-chloro-1H-indazol-4-yl)-1-hydroxy-2-methylpropan-2-yl)-N-(2-methoxyethyl)piperidine-1-carboxamide] | 0.0001 to 10 | 0.0001 to 10 | 0.0001 to 10 | 0.0001 to 10
7 | CC(C)(C1CCN(C(=O)NCC(F)(F)F)CC1)C(O)c1cc(Cl)cc2[nH]ncc12 (stereo not shown) [Compound P-0084, 4-(1-(6-chloro-1H-indazol-4-yl)-1-hydroxy-2-methylpropan-2-yl)-N-(2,2,2-trifluoroethyl)piperidine-1-carboxamide] | 0.0001 to 10 | 0.0001 to 10 | 0.0001 to 10 | 0.0001 to 10
8 | CC(C)(C1CCN(C(=O)NCCC(F)(F)F)CC1)C(O)c1cc(Cl)cc2[nH]ncc12 (stereo not shown) [Compound P-0086, 4-(1-(6-chloro-1H-indazol-4-yl)-1-hydroxy-2-methylpropan-2-yl)-N-(3,3,3-trifluoropropyl)piperidine-1-carboxamide] | 0.0001 to 10 | 0.0001 to 10 | 0.0001 to 10 | 0.0001 to 10
9 | CC(C)(C1CCN(C(=O)NCC#N)CC1)C(O)c1cc(Cl)cc2[nH]ncc12 (stereo not shown) [Compound P-0087, 4-(1-(6-chloro-1H-indazol-4-yl)-1-hydroxy-2-methylpropan-2-yl)-N-(cyanomethyl)piperidine-1-carboxamide] | 0.0001 to 10 | 0.0001 to 10 | 0.0001 to 10 | > 10
10 | C#CCNC(=O)N1CCC(C(C)(C)C(O)c2cc(Cl)cc3[nH]ncc23)CC1 (stereo not shown) [Compound P-0088, 4-(1-(6-chloro-1H-indazol-4-yl)-1-hydroxy-2-methylpropan-2-yl)-N-(prop-2-yn-1-yl)piperidine-1-carboxamide] | 0.0001 to 10 | 0.0001 to 10 | 0.0001 to 10 | > 10
11 | CNC(=O)CNC(=O)N1CCC(C(C)(C)C(O)c2cc(Cl)cc3[nH]ncc23)CC1 (stereo not shown) [Compound P-0089, 4-(1-(6-chloro-1H-indazol-4-yl)-1-hydroxy-2-methylpropan-2-yl)-N-(2-(methylamino)-2-oxoethyl)piperidine-1-carboxamide] | 0.0001 to 10 | 0.0001 to 10 | 0.0001 to 10 | 0.0001 to 10
12 | CC(C)(C1CCN(C(=O)NCCCF)CC1)C(O)c1cc(Cl)cc2[nH]ncc12 (stereo not shown) [Compound P-0090, 4-(1-(6-chloro-1H-indazol-4-yl)-1-hydroxy-2-methylpropan-2-yl)-N-(3-fluoropropyl)piperidine-1-carboxamide] | 0.0001 to 10 | 0.0001 to 10 | 0.0001 to 10 | > 10
13 | CC(C)(C1CCN(C(=O)NCC(F)F)CC1)C(O)c1cc(Cl)cc2[nH]ncc12 (stereo not shown) [Compound P-0091, 4-(1-(6-chloro-1H-indazol-4-yl)-1-hydroxy-2-methylpropan-2-yl)-N-(2,2-difluoroethyl)piperidine-1-carboxamide] | 0.0001 to 10 | 0.0001 to 10 | 0.0001 to 10 | 0.0001 to 10
14 | CONC(=O)N1CCC(C(C)(C)C(O)c2cc(Cl)cc3[nH]ncc23)CC1 (stereo not shown) [Compound P-0093, 4-(1-(6-chloro-1H-indazol-4-yl)-1-hydroxy-2-methylpropan-2-yl)-N-methoxypiperidine-1-carboxamide] | 0.0001 to 10 | 0.0001 to 10 | 0.0001 to 10 | > 10
15 | CC(C)(C1CCN(C(=O)NC2CC(F)(F)C2)CC1)C(O)c1cc(Cl)cc2[nH]ncc12 (stereo not shown) [Compound P-0094, 4-(1-(6-chloro-1H-indazol-4-yl)-1-hydroxy-2-methylpropan-2-yl)-N-(3,3-difluorocyclobutyl)piperidine-1-carboxamide] | 0.0001 to 10 | 0.0001 to 10 | 0.0001 to 10 | 0.0001 to 10
16 | CC(C)(C1CCN(C(=O)NCCF)CC1)C(O)c1cc(Cl)cc2[nH]ncc12 (stereo not shown) [Compound P-0110, 4-(1-(6-chloro-1H-indazol-4-yl)-1-hydroxy-2-methylpropan-2-yl)-N-(2-fluoroethyl)piperidine-1-carboxamide] | 0.0001 to 10 | 0.0001 to 10 | 0.0001 to 10 | > 10
17 | CC(C)(C1CCN(C(=O)N[C@@H]2CCOC2)CC1)C(O)c1cc(Cl)cc2[nH]ncc12 (stereo partly drawn) [Compound P-0113, 4-(1-(6-chloro-1H-indazol-4-yl)-1-hydroxy-2-methylpropan-2-yl)-N-((R)-tetrahydrofuran-3-yl)piperidine-1-carboxamide] | 0.0001 to 10 | 0.0001 to 10 | 0.0001 to 10 | 0.0001 to 10

Results, then the compound that gave them:

Row | IC50 (TDO) [µM] | IC50 (IDO1) [µM] | IC50 [1] [µM] | IC50 [2] [µM] | SMILES
18 | 0.0001 to 10 | 0.0001 to 10 | 0.0001 to 10 | 0.0001 to 10 | CC(C)(C1CCN(C(=O)NC2CC2)CC1)C(O)c1cc(Cl)cc2[nH]ncc12 (stereo not shown) [Compound P-0081, 4-(1-(6-chloro-1H-indazol-4-yl)-1-hydroxy-2-methylpropan-2-yl)-N-cyclopropylpiperidine-1-carboxamide]
19 | 0.0001 to 10 | 0.0001 to 10 | 0.0001 to 10 | > 10 | CC(C)(C1CCN(C(=O)NCCS(C)(=O)=O)CC1)C(O)c1cc(Cl)cc2[nH]ncc12 (stereo not shown) [Compound P-0085, 4-(1-(6-chloro-1H-indazol-4-yl)-1-hydroxy-2-methylpropan-2-yl)-N-(2-(methylsulfonyl)ethyl)piperidine-1-carboxamide]
20 | 0.0001 to 10 | 0.0001 to 10 | 0.0001 to 10 | 0.0001 to 10 | CC(C)(C1CCN(C(=O)NCC2CCC2)CC1)C(O)c1cc(Cl)cc2[nH]ncc12 (stereo not shown) [Compound P-0092, 4-(1-(6-chloro-1H-indazol-4-yl)-1-hydroxy-2-methylpropan-2-yl)-N-(cyclobutylmethyl)piperidine-1-carboxamide]
21 | 0.0001 to 10 | 0.0001 to 10 | 0.0001 to 10 | 0.0001 to 10 | N#CC1CCN(c2cc(Cl)cc3cn[nH]c23)CC1 [Compound P-0097, 1-(5-chloro-1H-indazol-7-yl)piperidine-4-carbonitrile]
22 | 0.0001 to 10 | 0.0001 to 10 | 0.0001 to 10 | 0.0001 to 10 | CS(=O)(=O)N1CC=C(c2cc(Cl)cc3cn[nH]c23)CC1 [Compound P-0098, 5-chloro-7-(1-(methylsulfonyl)-1,2,3,6-tetrahydropyridin-4-yl)-1H-indazole]
23 | 0.0001 to 10 | 0.0001 to 10 | 0.0001 to 10 | 0.0001 to 10 | OC1(c2cc(Cl)cc3cn[nH]c23)CC(C2CC2)(C2CC2)C1 [Compound P-0108, 1-(5-chloro-1H-indazol-7-yl)-3,3-dicyclopropylcyclobutan-1-ol]
24 | 0.0001 to 10 | 0.0001 to 10 | 0.0001 to 10 | 0.0001 to 10 | CC(C)(C1CCN(C(=O)NC2CCC(F)(F)CC2)CC1)C(O)c1cc(Cl)cc2[nH]ncc12 (stereo not shown) [Compound P-0112, 4-(1-(6-chloro-1H-indazol-4-yl)-1-hydroxy-2-methylpropan-2-yl)-N-(4,4-difluorocyclohexyl)piperidine-1-carboxamide]
25 | 0.0001 to 10 | 0.0001 to 10 | 0.0001 to 10 | 0.0001 to 10 | CC(C)(C1CCN(C(=O)N[C@H]2CCOC2)CC1)C(O)c1cc(Cl)cc2[nH]ncc12 (stereo partly drawn) [Compound P-0114, 4-(1-(6-chloro-1H-indazol-4-yl)-1-hydroxy-2-methylpropan-2-yl)-N-((S)-tetrahydrofuran-3-yl)piperidine-1-carboxamide]
